Like-named read-outs stand apart in the source and are kept apart here. Bridge positions count the residues as written; N and C are the ends. Peptide text beside a SMILES is read from it.

Assay [1] deals with β3-Tryptase (Homo sapiens, UniProt P20231). The assay is described as follows: Kiapp determination with tryptase (Example 3). Type of assay: biochemical. As to the method: Tryptase (0.2 nM) was preincubated with McoTi-KVV (0-34 nM) at 37 degree C. for 60 min, and the reaction was initiated by the addition of substrate tos-Gly-Pro-Arg-AMC. The residual steady state velocities were measured over 10 min and are expressed in % of the activity measured in the absence of the inhibitor.
Tryptase (0.2 nM) was preincubated with MCoEeTI (0-1950 nM) at 37 degree C. for 60 min, and the reaction was initiated by the addition of substrate tos-Gly-Pro-Arg-AMC. The residual steady state velocities were measured over 10 min and are expressed in % of the activity measured in the absence of the inhibitor.

For assay [2], the target named is T1, bovine trypsin (Bos taurus, UniProt P00760).
T1 construct: purchased Serva
T1 sequence (P00760 24-246): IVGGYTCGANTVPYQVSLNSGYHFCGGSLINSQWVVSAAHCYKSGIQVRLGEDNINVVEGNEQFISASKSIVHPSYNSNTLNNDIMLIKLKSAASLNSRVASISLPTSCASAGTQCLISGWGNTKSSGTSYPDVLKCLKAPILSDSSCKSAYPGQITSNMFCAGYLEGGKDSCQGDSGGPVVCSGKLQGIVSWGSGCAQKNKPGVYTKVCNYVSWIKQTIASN
The assay is described as follows: Trypsin inhibition with substrate Boc-Leu-Gly-Arg-pNA (Example 4). It counts as biochemical. Conditions: as barnase′ fusion proteins. As to the method:
The inhibitory activity of the protein variants was measured according to van Nostrand et al. (1990) and Sinha et al. (1991). The remaining activity of bovine trypsin (Serva) was determined after incubation with the respective inhibitor for 10 min at 37° C. by monitoring hydrolysis of the chromogenic substrate Boc-Leu-Gly-Arg-pNA (Bachem, solubilized in Me2SO) at 405 nm. Assays were performed in a final volume of 100 μl in 50 mM Tris-HCl, pH 7.5, 150 mM NaCl, 5 mM CaCl2 at 37° C. containing 5 nM of trypsin, […] and varying amounts of inhibitor (10^−10-10^−6 M). For calculation of Kiapp-values, vmax values were determined and the curve fitting tool of SigmaPlot (Jandel Scientific) was applied on the basis of the following formula, that describes the case of competitive tight binding inhibitors (Morrison, 1969):
[formula] vi=vmax value of inhibited reaction v0=vmax value of uninhibited reaction [Et]=total enzyme concentration (free and in complex) [It]=total inhibitor concentration (free and in complex) Kiapp=apparent dissociation constant of the enzyme-inhibitor complex. Results and Discussion Choice of Carrier Protein and Production Strategy

Assay [3] deals with T2, Trypsin (Bos taurus, UniProt P00760).
T2 sequence (P00760 24-246): T1 sequence (P00760 24-246)
The assay is described as follows: Kiapp determination with trypsin (Example 3). Type of assay: biochemical, bovine. The text has this:
Therefore, bovine pancreatic trypsin was standardised by active-site titration using p-Nitrophenyl p′-guanidinobenzoate (Chase & Shaw, 1970).

Assay [4] has as its target Chymotrypsin. The assay is described as follows: Protease selectivity, Kiapp. To be noted: Porcine. It counts as biochemical.
The target in assay [5] is pK1. The assay is described as follows: Protease selectivity, Kiapp. Type of assay: biochemical. Conditions: Human.
The target of assay [6] is Tryptase β-Ia (Homo sapiens, UniProt Q15661). The assay is described as follows: biochemical.
In assay [7] the target is Tryptase β-II (Homo sapiens, UniProt P20231). The assay is described as follows: biochemical.
In assay [8] the target is Tryptase ST2 (Ovis aries, UniProt Q9XSM2). The assay is described as follows: biochemical.
The target in assay [9] is Trypsin (Sus scrofa, UniProt P00761). The assay is described as follows: biochemical.
Assay [10] deals with Elastase (Pankreas proteases) (Sus scrofa, UniProt P00772). The assay is described as follows: biochemical.
Assay [11] deals with Thrombin (Homo sapiens, UniProt P00734). The assay is described as follows: biochemical.
Assay [12] has as its target Faktor XA (Homo sapiens, UniProt P00742). The assay is described as follows: biochemical.
Assay [13] has as its target Plasmin (Homo sapiens, UniProt P00747). The assay is described as follows: biochemical.
The target of assay [14] is tPA (Homo sapiens, UniProt P00750). The assay is described as follows: biochemical.
Assay [15] has as its target Elastase (Neutrophiles) (Homo sapiens, UniProt P08246). The assay is described as follows: biochemical.
For assay [16], the target named is Cathepsin G (Homo sapiens, UniProt P08311). The assay is described as follows: biochemical.
Assay [17] concerns the target hK3 (Homo sapiens, UniProt P07288). The assay is described as follows: biochemical.
The target of assay [18] is tetrameric tryptase (Homo sapiens, UniProt P20231). Conditions: cited from earlier work.

Compound `CC[C@H](C)[C@@H]1NC(=O)[C@H](CCCCN)NC(=O)[C@@H]2CCCN2C(=O)[C@@H](NC(=O)[C@@H](NC(=O)[C@H](CO)NC(=O)CN)C(C)C)CSSC[C@@H]2NC(=O)CNC(=O)[C@H](C)NC(=O)[C@H](CC(C)C)NC(=O)[C@@H]3CSSC[C@@H](C(=O)NCC(=O)N[C@@H](CO)C(=O)O)NC(=O)[C@H](Cc4ccccc4)NC(=O)CNC(=O)[C@H](CC(N)=O)NC(=O)[C@@H]4CCCN4C(=O)CNC(=O)[C@H](CSSC[C@H](NC(=O)[C@H](CCCCN)NC(=O)[C@H](CCCCN)NC(=O)[C@H](CC(C)C)NC1=O)C(=O)N[C@@H](CCCNC(=N)N)C(=O)N[C@@H](CCCNC(=N)N)C(=O)N[C@@H](CC(=O)O)C(=O)N[C@@H](CO)C(=O)N[C@@H](CC(=O)O)C(=O)N3)NC(=O)[C@H](C(C)C)NC2=O` [MCoEeTI] (H-GSVCPKILKKCRRDSDCLAGCVCGPNGFCGS-OH; disulfide 4-21, 11-23, 17-29; N-terminus and C-terminus assumed) registered a Ki in [1] of 200 nM. Besides, the “inhibition of bovine trypsin (in words)” value in assay [2] is “strong inhibitory activity”.

“MCoEeTI-QRT-7: Barnase′-[…] (SEQ ID NO:38) (SSSMGVCPRNRQRCRRDSDCLAGCVCTNNKFCGS; not fully specified)” showed a Ki in assay [3] of 1 nM.

For the compound “MCoEeTI-3R-3: Barnase′-[…] (SEQ ID NO:4) (SSSMGVCPRILRRCRRDSDCLAGCVCGPNGFCGS; not fully specified)”, the results for the Ki in assay [3] and in [1] (read-out: Kiapp β3-Tryptase) were 0.2 nM and 30 nM, respectively.

In assay [3], “MCoEeTI-LKA-7: Bar′-[…] (SEQ ID NO:40) (SSSMGVCPKILKACRRDSDCLAGCVCGPNGFCGS; not fully specified)” came in with a Ki of 0.2 nM.

For `CC[C@H](C)[C@@H]1NC(=O)[C@H](CCCCN)NC(=O)[C@@H]2CCCN2C(=O)[C@@H](NC(=O)[C@@H](NC(=O)CN)C(C)C)CSSC[C@@H]2NC(=O)CNC(=O)[C@H](C)NC(=O)[C@H](CC(C)C)NC(=O)[C@@H]3CSSC[C@@H](C(=O)NCC(=O)N[C@@H](CO)C(=O)O)NC(=O)[C@H](Cc4ccccc4)NC(=O)CNC(=O)[C@H](CC(N)=O)NC(=O)[C@@H]4CCCN4C(=O)CNC(=O)[C@H](CSSC[C@H](NC(=O)[C@H](CCCCN)NC(=O)[C@H](CCCCN)NC(=O)[C@H](CC(C)C)NC1=O)C(=O)N[C@@H](CCCNC(=N)N)C(=O)N[C@@H](CCCNC(=N)N)C(=O)N[C@@H](CC(=O)O)C(=O)N[C@@H](CO)C(=O)N[C@@H](CC(=O)O)C(=O)N3)NC(=O)[C@H](C(C)C)NC2=O` [SE-MG-0] (H-GVCPKILKKCRRDSDCLAGCVCGPNGFCGS-OH; disulfide 3-20, 10-22, 16-28; N-terminus and C-terminus assumed), the Ki in assay [1] is 100 nM; in assay [4], above 1000 nM; in assay [5], above 1000 nM; in [6], 70 nM; in assay [7] it was 70 nM; in assay [8], 4000 nM. In addition, the Ki in [9] is 0.3 nM; in assay [10] it was above 1000 nM; in [11], above 1000 nM; in assay [12], above 1000 nM; in assay [13], around 600 nM; in assay [14] it was above 1000 nM. Besides, the Ki in [15], in assay [16] and in [17] was above 1000 nM throughout.

In the case of “SE-BMG-0: Barnase′-[…] (SEQ ID NO:3) (SSSMGVCPKILKKCRRDSDCLAGCVCGPNGFCGS; not fully specified)”, the figures for the Ki in [3] and in assay [1] (read-out: Kiapp β3-Tryptase) were 0.2 nM and 100 nM, respectively.

“MCoEeTI-ARD-2: Barnase′-[…] (SEQ ID NO:39) (SSSMGVCPKILKACARDSDCLAGCVCGPNGFCGS; not fully specified)” yielded a Ki in assay [3] of 0.2 nM.

With “MCoEeTI-T-1: Barnase′-[…] (SEQ ID NO:6) (SSSMGVCPKILKKCRRDSDCLAGCVCTNNKFCGS; not fully specified)”, the values for the Ki in assay [3] and in assay [1] (read-out: Kiapp β3-Tryptase) were 0.1 nM and 150 nM, respectively.

In the case of “LDTI: leech derived tryptase Inhibitor, a 46 residue Kazal-type protein (KKVCACPKILKPVCGSDGRTYANSCIARCNGVSIKSEGSCPTGILN; UniProt P80424 1-46, looked up)”, the Ki is 1.4 nM in assay [18] (2 of the 4 catalytic sites of the tetrameric tryptase), 560 nM in assay [18] (one of the remaining two sites) and 10000 nM in assay [18] (the other of the remaining two sites).

On to EETI-II [reference compound], for which the “inhibition of bovine trypsin (in words)” value in assay [2] is listed as “strong inhibitory activity”.

As for “MCoEeTI-KKV-1: Ba′-[…] (SEQ ID NO:5) (SSSMGKKVGVCPKILKKCRRDSDCLAGCVCGPNGFCGS; not fully specified)”, the Ki amounted to 0.2 nM in assay [3] and 20 nM in assay [1] (read-out: Kiapp β3-Tryptase).
